From article PMC9091252 (Nature Communications, 2022)
“And” between values parts separate entries of the source, which are not always exact repeats. Equal values may be shown once.

Columns and labels:
SARS-CoV-2 = test: AFM inhibition assay: binding probability between SARS-CoV-2 virions and 9-AcSA coated surfaces before and after incubation with oligomers; details: for relative BP, Mean: mean of 3 tips, 0 uM = 1; for relative BP, single tip: normalized to 0 uM = 1
S1 domain of SARS-CoV-2 = S1 domain of SARS-CoV-2 (Severe acute respiratory syndrome coronavirus 2, UniProt P0DTC2); test: FD-based AFM binding probability of S1-functionalized tip on 9-AcSA, SA or streptavidin coated surfaces
S1 subunit = S1 subunit (Severe acute respiratory syndrome coronavirus 2, UniProt P0DTC2); test: Dynamic force spectroscopy and kinetic on-rate analysis of the S1 – 9-AcSA bond; assay type: binding, SARS-CoV-2

| Molecule | relative BP, Mean (SARS-CoV-2; 1 uM) | relative BP, single tip (SARS-CoV-2; 1 uM, listed as Pillar[5]arene NonAc) | relative BP, Mean (SARS-CoV-2; 10 uM) | relative BP, single tip (SARS-CoV-2; 10 uM, listed as Pillar[5]arene NonAc) | relative BP, Mean (SARS-CoV-2; 100 uM) | relative BP, single tip (SARS-CoV-2; 100 uM, listed as Pillar[5]arene NonAc) | IC50 (SARS-CoV-2) [µM] | relative BP, single tip (SARS-CoV-2; 1 uM) | relative BP, single tip (SARS-CoV-2; 10 uM) | relative BP, single tip (SARS-CoV-2; 100 uM) | reduction in the binding probability (SARS-CoV-2; over the explored range 1, 10, 100 µM) | binding probability in competition assay with free 9-AcSA (S1 domain of SARS-CoV-2; S1 tip on 9-AcSA surface, free 1 mM 9-AcSA) | difference in binding probability between acetylated and non-acetylated SA (S1 domain of SARS-CoV-2; S1 tip, 9-AcSA versus SA coated surface) | koff (S1 subunit; Bell-Evans fit, single S1 – 9-AcSA bond) [s⁻¹] | KD (S1 subunit; ratio between koff and kon) | Kd (S1 subunit; ratio between koff and kon) [µM] |
| --- | --- | --- | --- | --- | --- | --- | --- | --- | --- | --- | --- | --- | --- | --- | --- | --- |
| CC(=O)N[C@H]1[C@H]([C@H](O)[C@H](O)CO)O[C@@](OCc2cn(CCOc3cc4c(OCCn5cc(CO[C@]6(C(=O)O)C[C@H](O)[C@@H](NC(C)=O)[C@H]([C@H](O)[C@H](O)CO)O6)nn5)cc3Cc3cc(OCCn5cc(CO[C@]6(C(=O)O)C[C@H](O)[C@@H](NC(C)=O)[C@H]([C@H](O)[C@H](O)CO)O6)nn5)c(cc3OCCn3cc(CO[C@]5(C(=O)O)C[C@H](O)[C@@H](NC(C)=O)[C@H]([C@H](O)[C@H](O)CO)O5)nn3)Cc3cc(OCCn5cc(CO[C@]6(C(=O)O)C[C@H](O)[C@@H](NC(C)=O)[C@H]([C@H](O)[C@H](O)CO)O6)nn5)c(cc3OCCn3cc(CO[C@]5(C(=O)O)C[C@H](O)[C@@H](NC(C)=O)[C@H]([C@H](O)[C@H](O)CO)O5)nn3)Cc3cc(OCCn5cc(CO[C@]6(C(=O)O)C[C@H](O)[C@@H](NC(C)=O)[C@H]([C@H](O)[C@H](O)CO)O6)nn5)c(cc3OCCn3cc(CO[C@]5(C(=O)O)C[C@H](O)[C@@H](NC(C)=O)[C@H]([C@H](O)[C@H](O)CO)O5)nn3)Cc3cc(OCCn5cc(CO[C@]6(C(=O)O)C[C@H](O)[C@@H](NC(C)=O)[C@H]([C@H](O)[C@H](O)CO)O6)nn5)c(cc3OCCn3cc(CO[C@]5(C(=O)O)C[C@H](O)[C@@H](NC(C)=O)[C@H]([C@H](O)[C@H](O)CO)O5)nn3)C4)nn2)(C(=O)O)C[C@@H]1O [compound 4] | 0.7825 | 0.6071 and 0.8687 and 0.8718 | 0.836 | 0.7738 and 0.9394 and 0.7949 | 0.9261 | 0.9286 and 0.9394 and 0.9103 |  |  |  |  |  |  |  |  |  |  |
| 9-O-acetylated sialic acid [9-AcSA] | 0.8501 |  | 0.807 |  | 0.638 |  | > 100 | 0.7609 and 0.6994 and 1.09 | 0.7029 and 0.638 and 1.08 | 0.587 and 0.4969 and 0.83 | 20-30% | significantly lower BP | ~ 3 fold | 0.24 ± 0.2 | low micromolar range | 5.7 ± 5 |
